Experimental data as given in patent US7332521B2, “Substituted indoles” (Wyeth, priority 2003, dated 2008).

Legend:
[1] = target: T1, recombinant human plasminogen activator inhibitor-1 (PAI-1) (Homo sapiens, UniProt P05121); experiment: Primary screen for the PAI-1 inhibition (chromogenic tPA activity); type: biochemical; details: pH 6.6 buffer; for inhibition at 10 µM: 10 μM test compound; for inhibition at 25 µM: 25 μM test compound
T1 construct: purchased Molecular Innovations, Royal Oak, Mich
Procedure: Test compounds are dissolved in DMSO at a final concentration of 10 mM, then diluted 100× in physiologic buffer. The inhibitory assay is initiated by the addition of the test compound (1-100 μM final concentration, maximum DMSO concentration of 0.2%) in a pH 6.6 buffer containing 140 nM recombinant human plasminogen activator inhibitor-1 (PAI-1; Molecular Innovations, Royal Oak, Mich.). Following a 1 hour incubation at room temperature, 70 nM of recombinant human tissue plasminogen activator (tPA) is added, and the combination of the test compound, PAI-1 and tPA is incubated for an additional 30 minutes. Following the second incubation, Spectrozyme-tPA (American Diagnostica, Greenwich, Conn.), a chromogenic substrate for tPA, is added and absorbance read at 405 nm at 0 and 60 minutes. Relative PAI-1 inhibition is equal to the residual tPA activity in the presence of the test compound and PAI-1. Control treatments include the complete inhibition of tPA by PAI-1 at the molar ratio employed (2:1), and the absence of any effect of the test compound on tPA alone.

human PAI-1 = human PAI-1 (Homo sapiens, UniProt P05121); experiment: Assay for determining IC50 of inhibition of PAI-1 (active PAI-1 bound to tPA-coated plate); type: binding; details: pH 7.5 buffer
Procedure: This assay is based upon the non-SDS dissociable interaction between tPA and active PAI-1. Assay plates are initially coated with human tPA (10 μg/ml). Test compounds of the present invention are dissolved in DMSO at 10 mM, then diluted with physiologic buffer (pH 7.5) to a final concentration of 1-50 μM. Test compounds are incubated with human PAI-1 (50 ng/ml) for 15 minutes at room temperature. The tPA-coated plate is washed with a solution of 0.05% Tween 20 and 0.1% BSA, then the plate is blocked with a solution of 3% BSA. An aliquot of the subtituted indole/PAI-1 solution is then added to the tPA-coated plate, incubated at room temperature for 1 hour, and washed. Active PAI-1 bound to the plate is assessed by adding an aliquot of a 1:1000 dilution of the 33B8 monoclonal antibody against human PAI-1, and incubating the plate at room temperature for 1 hour (Molecular Innovations, Royal Oak, Mich.). […] The plate is incubated 45 minutes at room temperature, and color development is determined at OD405nm. The quantitation of active PAI-1 bound to tPA at varying concentrations of the test compound is used to determine the IC50. Results are analyzed using a logarithmic best-fit equation. The assay sensitivity is 5 ng/ml of human PAI-1 as determined from a standard curve ranging from 0-100 ng/ml.

T1 sequence (P05121 24-402): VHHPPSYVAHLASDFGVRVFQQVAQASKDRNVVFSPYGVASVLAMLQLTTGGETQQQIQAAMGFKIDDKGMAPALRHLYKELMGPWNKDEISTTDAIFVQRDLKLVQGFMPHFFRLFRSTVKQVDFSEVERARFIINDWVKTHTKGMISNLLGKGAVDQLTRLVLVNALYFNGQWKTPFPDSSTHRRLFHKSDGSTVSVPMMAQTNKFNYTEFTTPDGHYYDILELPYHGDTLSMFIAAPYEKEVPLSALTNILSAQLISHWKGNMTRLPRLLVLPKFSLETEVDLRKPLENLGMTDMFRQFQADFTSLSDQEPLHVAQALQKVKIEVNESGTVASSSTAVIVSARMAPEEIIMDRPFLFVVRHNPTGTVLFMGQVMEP
Chain of human PAI-1 (P05121 24-402): as above

| SMILES | inhibition at 10 µM [1] | inhibition at 25 µM [1] | IC50 (human PAI-1) |
| --- | --- | --- | --- |
| O=C(O)c1c(-c2ccccc2)c2cc(Nc3ccc(-c4ccccc4)cc3)ccc2n1Cc1ccccc1 [Compound 3, 1-benzyl-5-(1,1′-biphenyl-4-ylamino)-3-phenyl-1H-indole-2-carboxylic acid] | 36% | 71% | – |
| CC(C)(C)c1ccc(Nc2ccc3c(c2)c(-c2ccccc2)c(C(=O)O)n3Cc2ccc(-c3ccccc3)cc2)cc1 [Compound 5, 1-(1,1′-biphenyl-4-ylmethyl)-5-[(4-tert-butylphenyl)amino]-3-phenyl-1H-indole-2-carboxylic acid] | 52% | 80% | 12 µM |
| Cc1cccc(Nc2ccc3c(c2)c(-c2ccccc2)c(C(=O)O)n3Cc2ccccc2)c1 [Compound 1, 1-benzyl-5-[(3-methylphenyl)amino]-3-phenyl-1H-indole-2-carboxylic acid] | 24% | 69% | – |
| CC(C)(C)c1ccc(Nc2ccc3c(c2)c(-c2ccccc2)c(C(=O)O)n3Cc2ccccc2)cc1 [Compound 2, 1-benzyl-5-[(4-tert-butylphenyl)amino]-3-phenyl-1H-indole-2-carboxylic acid] | 45% | 73% | – |
| O=C(O)c1c(-c2ccccc2)c2cc(Nc3cccc4c3sc3ccccc34)ccc2n1Cc1ccccc1 [Compound 4, 1-benzyl-5-(dibenzo[b,d]thien-4-ylamino)-3-phenyl-1H-indole-2-carboxylic acid] | 39% | 66% | – |
